From paper PMC10299677, “Fluorinated Benzofuran and Dihydrobenzofuran as Anti-Inflammatory and Potential Anticancer Agents” (International Journal of Molecular Sciences, 2023)
pIC50: −log10 of the molar value.

Columns and labels:
NO = NO (nitrite) formation in LPS-treated macrophages (BMDM); assay type: cell-based, C57BL/6J mice; settings: for effect on NO production: 50 µM, LPS 24 h; for pIC50: compounds 30 min prior to 10 ng/mL LPS for 24 h
Description: C57BL/6J (10–15 weeks old) male mice were obtained from the animal care facility at the American University of Beirut. All animal procedures were performed following the recommendations of the IACUC (Institutional Animal Care and Use Committee approval 16-09-M379). BMDMs were prepared and characterized as described previously by our group. BMDMs were isolated from C57BL/6J mice by flushing the femur and tibia with RPMI-1640 culture media (Sigma-Aldrich R7388), and cells were collected and centrifuged at 300× g for 5 min. The supernatant was discarded, and the pellet was resuspended in 2 mL red blood lysis 10% (Sigma-Aldrich R7767) medium in PBS and incubated for 5 min at room temperature. After diluting the suspension of cells with 5 mL of RPMI containing 10% FBS and 1% penicillin–streptomycin, cells were centrifuged at 300× g for 5 min, and the cell pellet was resuspended in RPMI media containing 10% FBS supplemented with 15% L929-conditioned medium containing macrophage-colony stimulating factor (M-CSF1) and plated on […]. Cells were allowed to proliferate and differentiate for 5–6 days. Cells were harvested, washed, and allowed to adhere overnight in RPMI containing 10% FBS for treatment. Cells were previously characterized by flow cytometry as macrophages using this method. […] Cells were plated at 0.8 × 10^6 cells per 3.8 cm^2 well [27].
BMDMs were then treated with different concentrations of the benzofuran and dihydrobenzofuran derivatives for 30 min prior to the addition of 10 ng/mL LPS for 24 h. […] The supernatants were assessed for IL-6, PGE2, CCL2, and nitrite, the stable derivative of NO, as described previously.
IL-6, CCL2, nitrite (for NO), and PGE2 concentrations from 3–5 independent experiments were expressed as percentage of LPS alone and as mean ± SEM. COX activity was determined as percentage of PGE2 produced from exogenous arachidonic acid. Curve fitting and calculation of IC50 values were performed using GraphPad Prism (version 9.5.1 Software, La Jolla, CA, USA).

[1] = test system: NF-κB or Iκ-Bα phosphorylation; assay: NF-κB and IκBα phosphorylation in LPS-treated macrophages (Western blot); assay type: cell-based, C57BL/6J mice; settings: compounds 30 min prior to 1 h LPS
Description: (§1) Macrophages were incubated with the compounds for 30 min prior to the addition of 10 ng/mL LPS for 24 h. Protein levels for COX-2 and NOS2 were detected in LPS-stimulated macrophages. As previously described, 10 µg of total protein was assessed. The primary antibodies were developed and characterized as previously described: for COX-2, mouse monoclonal antibody anti-COX-2 (clone COX-214, 1/5000); for NOS2, rabbit polyclonal antibody anti-NOS2 (dilution1/2000 [33]). Antibodies anti-phospho-NF-κB (3033S), phospho-IκBα (9246S), and total IκBα (4814S) were from Cell Signaling Technologies (Danvers, MA, USA). Total NF-κB C-20 (sc-372) was from Santa Cruz Biotechnologies (Dallas, TX, USA), and mouse β-actin (dilution 1/10,000) (Sigma-Aldrich, A5441). Clarity™ western ECL substrate (Bio-Rad Laboratories 10-5061) was used according to the manufacturer’s instructions to reveal positive bands visualized using Bio-Rad ChemiDoc. For Bcl-2 and cleaved PARP-1, HCT116 cells were plated in 6-well plates (200,000 cells per well) for 24 h, and treated with compounds 1 and 2 at 10, 25, and 50 µM for 72 h. Supernatants and cells were collected and lysed using RIPA lysis buffer containing inhibitors of protease. Western blot of Bcl-2 and cleaved PARP-1 was performed using 25 µg of total protein with a rabbit polyclonal antibody anti-Bcl-2 (1/500) (Santa Cruz Biotechnology, sc-492), rabbit polyclonal antibody anti-PARP-1 (1/1000) (Santa Cruz Biotechnology, sc-7150), and mouse anti-β-actin (dilution 1/10,000) (Sigma-Aldrich, A5441).
F i g u re S4: Phosphorylation of NF-κB and IκBα kinetics in LPS-treated macrophages. (A) Kinetics of the phosphorylation of NF-κB and IκBα in macrophages. Cells were treated with 10 ng/mL LPS for different time points and protein expression was assessed by western blot. We determine that 1 hour incubation with LPS is efficient for the phosphorylation of NF-κB and IκBα phosphorylation; (B) Macrophages were treated with the tested compounds for 30 minutes prior to 1 hour-treatment with LPS. β-actin was used as a loading control and densitometric analysis was done ImageJ Software (NIH, MA). Data are ex pressed as fold of LPS-treated macrophages and represented as mean ± S.E.M. of 3 different experiments, *p<0.05 versus LPS (One-w a y Anova followed by the Dunnett’s test). […]

HCT116 cells [2] = assay: HCT116 proliferation (WST-1 assay); assay type: cell-based, human; settings: for inhibition of HCT116 cell proliferation: 50 and 100 µM, 72 h; for pIC50: Homo sapiens, HCT-116, 72 h
Description: WST-1 assay was used to determine the effect of these compounds on HCT116 proliferation. Cells were plated in 96-well plate in triplicates (5000 cells per well) for 24 h and treated with 50 and 100 µM of the different compounds for 72 h. […] Culture medium without or with 10% FBS alone was used as basal and maximal proliferation, respectively. Results were expressed as percentage of cells incubated with 10% FBS alone.
(§2) Densitometric analyses were performed using ImageJ software (NIH, MA, USA). The ratio of the different analyzed bands to β-actin was determined and data are represented as fold change compared to the LPS-treated cells. Percentage of viable cells for proliferation assay was determined as percentage to control (non-treated cells). For TUNEL assay, apoptotic cells were quantified, and results were expressed as percentage to positive cells (cleaved DNA) compared to control (non-treated cells). Statistical analysis was performed using one-way ANOVA, followed by Dunnett’s multiple comparisons test using GraphPad Prism software. Differences were considered significant when p < 0.05.

HCT116 cells [3] = assay: TUNEL assay for apoptosis (DNA cleavage) in HCT116; assay type: cell-based, human; settings: 10, 25 and 50 µM, 72 h
Description: Terminal deoxynucleotidyl transferase dUTP nick-end labeling (TUNEL) assay (Sigma Aldrich 11684795910) was conducted to detect late phase of apoptosis in HCT116 cells. Cells were plated in 6-well plate (200,000 cells per well) for 24 h, and treated with compounds 1 and 2 at 10, 25, and 50 µM for 72 h. Adherent cells and cells in supernatants were collected and fixed with 4% paraformaldehyde for 2 days and then treated with PBS containing 0.1% Triton X-100 at 4 °C for 2 min. Cells were then stained with the TUNEL reagent for 1 h, and positive signals were quantified using the Guava EasyCyte8 Flow Cytometer-Millipore according to the manufacturer’s instructions.
as §2

PARP-1 = assay: Cleaved PARP-1 protein in HCT116 (Western blot); assay type: cell-based, human; settings: 10, 25 and 50 µM, 72 h
Description: as §1, with “Western blot of Bcl-2 and cleaved PARP-1 was performed using 25 µg of total protein with a rabbit polyclonal antibody anti-Bcl-2 (1/500) (Santa Cruz Biotechnology, sc-492), rabbit polyclonal antibody anti-PARP-1 (1/1000) (Santa Cruz Biotechnology, sc-7150), and mouse anti-β-actin (dilution 1/10,000) (Sigma-Aldrich, A5441).” left out

pIC50 (NO; Mus musculus, Macrophage) | pIC50 (NO) | pIC50 (HCT116 cells [2]) | Compound | effect on NO production (NO) | effect on NF-κB or Iκ-Bα phosphorylation induced by LPS [1] | inhibition of HCT116 cell proliferation (HCT116 cells [2]) | percentage of apoptotic cells, TUNEL (HCT116 cells [3]) | protein level of cleaved PARP-1 (PARP-1)
5.62 | 5.62 | 4.61 | O=C(O)/C=C1/Oc2ccc(Br)cc2C1(F)F [Compound 2] | significantly decreased | did not modify | more than 50% | concentration-dependent increase | increase
– | – | – | COC(=O)CC1(O)Oc2ccc(Br)cc2C1(F)F (stereo not drawn) [Compound 8] | – | did not modify | – | – | –
5.28 | 5.28 | – | O=C(O)/C=C1\Oc2ccc(Br)cc2C1(F)F [Compound 3] | significantly decreased | did not modify | – | – | –
– | – | 4.71 | COC(=O)/C=C1/Oc2ccc(Br)cc2C1(F)F [Compound 1] | – | did not modify | more than 50% | concentration-dependent increase | increase
